# Data reported in article PMC3017812 (Chembiochem : a European journal of chemical biology, 2010).
# Biological target: His-tagged MDM2 (Homo sapiens, UniProt Q00987)
# Assay: competitive fluorescence polarization binding assay
Compound,"fold lower affinity for MDM2 relative to peptide 1 (fluorescence polarization assay, compared with unconstrained peptide 1)","Kd (read-out: KD, binding affinity for MDM2, competitive fluorescence polarization assay, His-tagged MDM2)"
CC(C)C[C@H](NC(=O)[C@H](CC(=O)O)NC(=O)[C@H](CO)NC(=O)[C@H](Cc1ccccc1)N1C/C=C/CCC(=O)N[C@@H](CCC(=O)O)C(=O)N[C@@H](C)C1=O)C(=O)N[C@@H](Cc1c[nH]c2ccccc12)C(=O)N[C@@H](CCCCN)C(=O)N[C@@H](CC(C)C)C(=O)N[C@@H](CC(C)C)C(=O)N1CCC[C@H]1C(=O)N[C@@H](CCC(=O)O)C(=O)N[C@@H](CC(N)=O)C(=O)N[C@@H](CC(N)=O)C(=O)N[C@H](C(N)=O)C(C)C [HBS 2],seven-fold lower affinity,–
"HBS 3: negative control of 2, Phe-19 and Leu-26 mutated to alanine (EAASDLWKLAPENNV)",–,> 125 µM
